# Test results reported in ChEMBL document CHEMBL1201862, “PubChem BioAssay data set” (2004).
#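 Exposure lasted 48 hours, with cells grown in 96-well plates and compounds tested at five concentrations. At the GI50, growth is halved.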 Activity calls are given as the source filed them. Rule as the data show it: active = GI50 up to about 1.1 µM and inactive = higher.
# What was measured:
# Test in all cases: DTP human tumour cell line panel, 48 h
# [1] = system: Malme-3M
# [2] = system: CAKI-1
# [3] = system: SR
# [4] = system: ACHN
# [5] = system: DU-145
# [6] = system: SF-268
# [7] = system: MCF7
# [8] = system: HOP-62
# [9] = system: KM12
# [10] = system: A549
# [11] = system: TK-10
# [12] = system: SNB-75
# [13] = system: HL-60
# [14] = system: SNB-19
# [15] = system: SK-MEL-28
# [16] = system: SN12C
# [17] = system: HOP-92
# [18] = system: SW-620
# [19] = system: U-251
# [20] = system: RXF 393
# [21] = system: OVCAR-4
# [22] = system: MOLT-4
# [23] = system: MDA-MB-435
# [24] = system: Hs-578T
# [25] = system: 786-0
# [26] = system: UACC-62
# [27] = system: BT-549
# [28] = system: HCT-15
# [29] = system: UACC-257
# [30] = system: MDA-MB-231
# [31] = system: M14
# [32] = system: HCT-116
# [33] = system: HT-29
# [34] = system: OVCAR-5
# [35] = system: SF-539
# [36] = system: NCI/ADR-RES
# [37] = system: SK-MEL-5
# [38] = system: EKVX
# [39] = system: K562
# [40] = system: SK-OV-3
# [41] = system: COLO 205
# [42] = system: PC-3
# [43] = system: NCI-H460
# [44] = system: NCI-H23
# [45] = system: NCI-H226
# [46] = system: OVCAR-3
# [47] = system: OVCAR-8
# [48] = system: SF-295
# [49] = system: T47D
# [50] = system: HCC 2998
# [51] = system: A498
# [52] = system: LOX IMVI
# [53] = system: CCRF-CEM
# [54] = system: UO-31
# [55] = system: RPMI-8226
# [56] = system: IGROV-1
# [57] = system: NCI-H522
# [58] = system: SK-MEL-2
compound,measurement,setting,value
Cc1cc(NC(=S)SCc2ccc(F)cc2)c([N+](=O)[O-])cc1C,GI50,[1],25.6 µM (inactive)
same,GI50,[2],47.2 µM (inactive)
same,GI50,[3],20.3 µM (inactive)
same,GI50,[4],32.4 µM (inactive)
same,GI50,[5],32.2 µM (inactive)
same,GI50,[6],31.5 µM (inactive)
same,GI50,[7],42.1 µM (inactive)
same,GI50,[8],24.7 µM (inactive)
same,GI50,[9],19.9 µM (inactive)
same,GI50,[10],27.7 µM (inactive)
same,GI50,[11],24.2 µM (inactive)
same,GI50,[12],46.9 µM (inactive)
same,GI50,[13],16.9 µM (inactive)
same,GI50,[14],23.2 µM (inactive)
same,GI50,[15],39.1 µM (inactive)
same,GI50,[16],19.4 µM (inactive)
same,GI50,[17],18.4 µM (inactive)
same,GI50,[18],27.5 µM (inactive)
same,GI50,[19],22.4 µM (inactive)
same,GI50,[20],22.9 µM (inactive)
same,GI50,[21],30.9 µM (inactive)
same,GI50,[22],3.29 µM (inactive)
same,GI50,[23],26.7 µM (inactive)
same,GI50,[24],13.4 µM (inactive)
same,GI50,[25],33.3 µM (inactive)
same,GI50,[26],15 µM (inactive)
same,GI50,[27],28.2 µM (inactive)
same,GI50,[28],18.3 µM
same,GI50,[29],21 µM (inactive)
same,GI50,[30],14.6 µM (inactive)
same,GI50,[31],35.5 µM (inactive)
same,GI50,[32],26.2 µM (inactive)
same,GI50,[33],13.6 µM (inactive)
same,GI50,[34],21.6 µM (inactive)
same,GI50,[35],23.8 µM (inactive)
same,GI50,[36],25.8 µM (inactive)
same,GI50,[37],8.71 µM (inactive)
same,GI50,[38],39.6 µM (inactive)
same,GI50,[39],32.3 µM (inactive)
same,GI50,[40],32.3 µM (inactive)
same,GI50,[41],19.3 µM (inactive)
same,GI50,[42],42.2 µM (inactive)
same,GI50,[43],36.7 µM (inactive)
same,GI50,[44],29.8 µM (inactive)
same,GI50,[45],16.6 µM (inactive)
same,GI50,[46],22.6 µM (inactive)
same,GI50,[47],19 µM (inactive)
same,GI50,[48],34.5 µM (inactive)
same,GI50,[49],48.8 µM (inactive)
CC(=O)Oc1ccc2c(-c3ccccc3)c(Oc3ccc(Cl)cc3)c(=O)oc2c1,GI50,[1],15.6 µM (inactive)
same,GI50,[2],18.3 µM (inactive)
same,GI50,[3],28.8 µM (inactive)
same,GI50,[4],16.9 µM (inactive)
same,GI50,[5],14.4 µM (inactive)
same,GI50,[6],6.17 µM (inactive)
same,GI50,[7],20.7 µM (inactive)
same,GI50,[8],18.3 µM (inactive)
same,GI50,[9],14.4 µM (inactive)
same,GI50,[50],7.55 µM (inactive)
same,GI50,[10],13.7 µM (inactive)
same,GI50,[11],13.5 µM (inactive)
same,GI50,[12],7.45 µM (inactive)
same,GI50,[13],42.3 µM (inactive)
same,GI50,[14],14.4 µM (inactive)
same,GI50,[15],17.7 µM (inactive)
same,GI50,[16],24.1 µM (inactive)
same,GI50,[17],10.4 µM (inactive)
same,GI50,[18],20.3 µM (inactive)
same,GI50,[19],4.19 µM (inactive)
same,GI50,[20],18 µM (inactive)
same,GI50,[51],17 µM (inactive)
same,GI50,[21],15.2 µM (inactive)
same,GI50,[22],18.1 µM (inactive)
same,GI50,[24],20.1 µM (inactive)
same,GI50,[52],20.6 µM (inactive)
same,GI50,[53],15.4 µM (inactive)
same,GI50,[25],16.4 µM (inactive)
same,GI50,[27],18.8 µM (inactive)
same,GI50,[28],3.16 µM
same,GI50,[29],21.3 µM (inactive)
same,GI50,[54],14.8 µM (inactive)
same,GI50,[30],18.7 µM (inactive)
same,GI50,[31],19.8 µM (inactive)
same,GI50,[32],14.9 µM (inactive)
same,GI50,[33],20.8 µM (inactive)
same,GI50,[34],17.9 µM (inactive)
same,GI50,[35],16.4 µM (inactive)
same,GI50,[55],47.1 µM (inactive)
same,GI50,[37],18 µM (inactive)
same,GI50,[38],15.6 µM (inactive)
same,GI50,[39],14.8 µM (inactive)
same,GI50,[42],23.1 µM (inactive)
same,GI50,[43],14.7 µM (inactive)
same,GI50,[44],18.7 µM (inactive)
same,GI50,[45],17.3 µM (inactive)
same,GI50,[56],15.9 µM (inactive)
same,GI50,[46],14.5 µM (inactive)
same,GI50,[47],18.5 µM (inactive)
same,GI50,[48],17.9 µM (inactive)
same,GI50,[49],6.21 µM (inactive)
same,GI50,[57],2.82 µM (inactive)
O=S1(=O)OC(c2ccc(O)cc2)(c2ccc(O)cc2)c2ccccc21 [PHENOLSULFONPHTHALEIN],GI50,[1],> 100 µM (inactive)
same,GI50,[2],> 100 µM (inactive)
same,GI50,[4],> 100 µM (inactive)
same,GI50,[5],> 100 µM (inactive)
same,GI50,[6],> 100 µM (inactive)
same,GI50,[7],> 100 µM (inactive)
same,GI50,[8],> 100 µM (inactive)
same,GI50,[9],> 100 µM (inactive)
same,GI50,[50],> 100 µM (inactive)
same,GI50,[10],> 100 µM (inactive)
same,GI50,[11],> 100 µM (inactive)
same,GI50,[12],> 100 µM (inactive)
same,GI50,[13],> 100 µM (inactive)
same,GI50,[14],> 100 µM (inactive)
same,GI50,[15],> 100 µM (inactive)
same,GI50,[16],> 100 µM (inactive)
same,GI50,[17],> 100 µM (inactive)
same,GI50,[18],> 100 µM (inactive)
same,GI50,[19],> 100 µM (inactive)
same,GI50,[20],> 100 µM (inactive)
same,GI50,[51],> 100 µM (inactive)
same,GI50,[21],> 100 µM (inactive)
same,GI50,[22],> 100 µM (inactive)
same,GI50,[23],> 100 µM (inactive)
same,GI50,[24],> 100 µM (inactive)
same,GI50,[52],> 100 µM (inactive)
same,GI50,[53],> 100 µM (inactive)
same,GI50,[25],> 100 µM (inactive)
same,GI50,[26],> 100 µM (inactive)
same,GI50,[27],> 100 µM (inactive)
same,GI50,[28],> 100 µM
same,GI50,[29],> 100 µM (inactive)
same,GI50,[54],> 100 µM (inactive)
same,GI50,[30],> 100 µM (inactive)
same,GI50,[31],> 100 µM (inactive)
same,GI50,[58],> 100 µM (inactive)
same,GI50,[32],> 100 µM (inactive)
same,GI50,[33],> 100 µM (inactive)
same,GI50,[34],> 100 µM (inactive)
same,GI50,[35],> 100 µM (inactive)
same,GI50,[36],> 100 µM (inactive)
same,GI50,[55],> 100 µM (inactive)
same,GI50,[37],> 100 µM (inactive)
same,GI50,[38],> 100 µM (inactive)
same,GI50,[39],> 100 µM (inactive)
same,GI50,[40],> 100 µM (inactive)
same,GI50,[41],> 100 µM (inactive)
same,GI50,[42],> 100 µM (inactive)
same,GI50,[43],> 100 µM (inactive)
same,GI50,[44],> 100 µM (inactive)
same,GI50,[45],> 100 µM (inactive)
same,GI50,[56],> 100 µM (inactive)
same,GI50,[46],> 100 µM (inactive)
same,GI50,[47],> 100 µM (inactive)
same,GI50,[48],> 100 µM (inactive)
same,GI50,[49],> 100 µM (inactive)
same,GI50,[57],> 100 µM (inactive)
